Source: PubChem BioAssay AID1996
Values after ≈ are worked out from the molar mass of the structure shown.

Conditions: buffer; pH 7.4; 200.0 µM

Row | solubility kinetic | SMILES
1 | 37.4 µg/mL (≈ 111 µM) | OC(COc1ccc(F)cc1Cl)CN1CCc2ccccc2C1 (stereo not given)
2 | 6.3 µg/mL (≈ 14.3 µM) | O=C1CN(C(=O)CN2C(=O)NC(c3ccccc3)(c3ccccc3)C2=O)c2ccccc2N1
3 | 41.1 µg/mL (≈ 122 µM) | O=C(c1ccc2oc(CCc3ccccc3)nc2c1)N1CC[C@H](O)C1
4 | > 49.3 µg/mL | Cc1ccc(F)cc1NC(=O)CN1CCN(c2ccccn2)CC1
5 | > 51.8 µg/mL | O=C(CSc1ccccc1C(=O)O)NC12CC3CC(CC(C3)C1)C2
6 | 17.7 µg/mL (≈ 52.6 µM) | Cc1ccccc1C(=O)Nc1cccc(NC(=O)c2cccs2)c1
7 | > 63.8 µg/mL | Cc1cnc(C(=O)N2CCN(S(=O)(=O)c3cccc(Br)c3)CC2)cn1
8 | 4.5 µg/mL (≈ 10 µM) | O=C(CCCN1C(=O)/C(=C/c2ccccc2OC(F)F)SC1=S)Nc1cccnc1
9 | > 45.5 µg/mL | COc1ccc(NC(=O)c2ccccc2SC)c(OC)c1
10 | > 47.6 µg/mL | CC(=O)c1ccccc1NC(=O)CC1(CC(=O)O)CCCCC1
11 | > 45.1 µg/mL | O=C(c1ccccc1)N1CCCC(C(=O)N2CCCCC2)C1 (stereo not given)
12 | > 46.2 µg/mL | O=C1CN(C(=S)NC(=O)c2ccccc2[N+](=O)[O-])CCN1
13 | 9.6 µg/mL (≈ 29.8 µM) | COC(=O)c1ccc(C(=O)OC)c(NC(=S)N2CCCC2)c1
14 | 1.4 µg/mL (≈ 5.05 µM) | COc1ccc(NC(=O)c2cccc3ccccc23)cc1
15 | 10.1 µg/mL (≈ 30.3 µM) | COC(=O)c1ccc(CNC(=O)COC(=O)c2cccs2)cc1
16 | 1.8 µg/mL (≈ 4.22 µM) | COc1ccc(OCC(=O)Nc2ccc(S(=O)(=O)N(C)c3ccccc3)cc2)cc1
17 | > 49.4 µg/mL | COc1cc(C(=O)Nc2ccc(C(=O)O)cc2)ccc1OC(C)=O
18 | 15.6 µg/mL (≈ 60.2 µM) | CCN1c2ccccc2S(=O)(=O)c2ccccc21
19 | 3.8 µg/mL (≈ 13.7 µM) | CC(NC(=O)NC(=O)c1cccc([N+](=O)[O-])c1)C1CC1 (stereo not given)
20 | > 36.3 µg/mL | Cn1cc(CCC(=O)NC2CC2)c2ccccc21
21 | > 32.6 µg/mL | O=C(Nc1ccc(F)cc1)c1cccnn1
22 | 44.8 µg/mL (≈ 150 µM) | O=C(COc1ccccc1)NCC1COc2ccccc2O1 (stereo not given)

Row | solubility kinetic | SMILES
23 | 10.1 µg/mL (≈ 28 µM) | CC(Oc1ccc(Cl)cc1)C(=O)Nc1ccccc1N1CCOCC1 (stereo not given)
24 | 3.1 µg/mL (≈ 11.6 µM) | Cc1ccc2c(N)c(C(=O)c3ccccc3)sc2n1
25 | 29.8 µg/mL (≈ 112 µM) | O=C(OCC(=O)N1CCOCC1)c1ccccc1O
26 | 20.9 µg/mL (≈ 74.8 µM) | Cc1cccc(NC(=O)/C(C#N)=C/c2ccccc2O)n1
27 | 33.3 µg/mL (≈ 114 µM) | Cc1nc2c(C)cccc2c2c1CCN2c1ccccc1F
28 | 47.9 µg/mL (≈ 149 µM) | COc1ccccc1N1CCN(Cc2nc3ccccc3[nH]2)CC1
29 | > 67.1 µg/mL | COc1ccc(S(N)(=O)=O)cc1C(=O)OCC(=O)N1c2ccccc2NC(=O)C1(C)C
30 | 1 µg/mL (≈ 3.05 µM) | Cc1cccc(-c2nc(Nc3cccc(O)c3)c3ccccc3n2)c1
31 | > 54.2 µg/mL | O=C(O)c1ccc(OCC(O)Cn2c3ccccc3c3ccccc32)cc1 (stereo not given)
32 | 36.5 µg/mL (≈ 104 µM) | O=C(CNC(=O)Cc1cccc2ccccc12)NCc1ccccc1F
33 | 9.7 µg/mL (≈ 28.8 µM) | CS(=O)(=O)N1CCN(c2ccc([N+](=O)[O-])c3cccnc23)CC1
34 | > 42.9 µg/mL | CC(Oc1ccccc1)C(=O)Nc1cccc([N+](=O)[O-])c1 (stereo not given)
35 | 2.1 µg/mL (≈ 6.17 µM) | O=C(Cn1c(=S)[nH]c2ncccc2c1=O)NCCc1ccccc1
36 | > 54.5 µg/mL | COc1cc(S(=O)(=O)N2CCn3cccc3C2C)ccc1NC(C)=O (stereo not given)
37 | > 46.3 µg/mL | Cc1ccc(CN2CCC(NC(=O)c3ccccc3)CC2)cc1
38 | 37.5 µg/mL (≈ 130 µM) | O=C(c1ccccc1)N1CCSc2sccc2C1=O
39 | 54.5 µg/mL (≈ 148 µM) | CN1CCN(C(=O)/C(=C/c2ccc(F)cc2)NC(=O)c2ccccc2)CC1
40 | > 49 µg/mL | Nc1nc(-c2ccc(Oc3ccccc3)cc2)c(CC(=O)O)s1
41 | 22.3 µg/mL (≈ 63.1 µM) | CN(Cc1ccccc1)C(=O)COC(=O)/C=C/c1ccc2c(c1)OCO2
42 | > 57.1 µg/mL | CC(C)[C@H](NC(=O)c1ccccc1Cl)C(=O)OCC(=O)N1CCCCC1
43 | > 57 µg/mL | Cc1cccnc1NC(=O)c1ccc(Cl)c(S(=O)(=O)N2CCCC2)c1

Second part, the molecule before the results:

Row | SMILES | solubility kinetic
44 | CC(C)(C)NCC(O)c1cc(Cl)c(N)c(Cl)c1.Cl (stereo not given) | 46.5 µg/mL
45 | CCN(CC)c1nc2ccccc2n(Cc2cccc(OC)c2)c1=O | 0.3 µg/mL (≈ 0.889 µM)
46 | c1ccc(-c2csc(-c3ccncc3)n2)cc1 | 24.8 µg/mL (≈ 104 µM)
47 | O=[N+]([O-])c1cccc(S(=O)(=O)c2cccc([N+](=O)[O-])c2)c1 | 0.4 µg/mL (≈ 1.3 µM)
48 | NC(=O)CCN1CCCCC1 | > 23.4 µg/mL
49 | CC1CCCC(NC(=O)COC(=O)c2cc(=O)[nH]c3ccccc23)C1C (stereo not given) | 4.6 µg/mL (≈ 12.9 µM)
50 | CC1CC(C)CN(CC(O)COCc2ccccc2)C1.Cl (stereo not given) | 46.9 µg/mL
51 | CC(C)c1ccc(NC(=S)NC2CC3C=CC2C3)cc1 (stereo not given) | 1.4 µg/mL (≈ 4.89 µM)
52 | COc1ccc(N(CC(=O)NC2CCS(=O)(=O)C2)S(=O)(=O)c2cc(C)ccc2C)cc1 (stereo not given) | 66.3 µg/mL (≈ 142 µM)
53 | CCOC(=O)c1cc(S(=O)(=O)N2CCOCC2)cn1C | 45.1 µg/mL (≈ 149 µM)
54 | COc1cc(C=O)cc(Cl)c1OC(=O)N1CCOCC1 | 39.5 µg/mL (≈ 132 µM)
55 | CC1CC(C)CN(C(=O)c2ccc(S(=O)(=O)N3CCCCC3)cc2)C1 (stereo not given) | 5.1 µg/mL (≈ 14 µM)
56 | CCOC(=O)c1c(/N=C/c2cccc([N+](=O)[O-])c2O)sc2c1CCC2 | 49.9 µg/mL (≈ 138 µM)
57 | N#C/C(=C\N1CCCCC1)S(=O)(=O)c1ccc(Cl)cc1 | 8.2 µg/mL (≈ 26.4 µM)
58 | OC1=C(O)c2nc3cc(F)ccc3nc21 | > 30.6 µg/mL
59 | O=[N+]([O-])c1ccccc1OCCN1CCCC1 | 25.5 µg/mL (≈ 108 µM)
60 | CC(C)CCN1CCN(Cc2ccon2)CC1CCO (stereo not given) | > 42.2 µg/mL
61 | Cc1cccnc1NC(=S)NC(=O)c1oc2ccccc2c1C | 4.7 µg/mL (≈ 14.4 µM)
62 | COc1ccc(CNc2nccs2)cc1OC | > 37.5 µg/mL
63 | COCCN(C(=O)c1ccccc1OC)c1nnc(C)s1 | > 46.1 µg/mL
64 | O=C(NCCCn1ccnc1)c1cc2ccccc2o1 | > 40.4 µg/mL
65 | Cc1ccc2nc(SC(C)C(=O)N3CCCCC3)[nH]c2c1 (stereo not given) | > 45.5 µg/mL
66 | Brc1c(NC2=NCCN2)ccc2nccnc12 | 11.2 µg/mL (≈ 38.3 µM)
67 | CCCS(=O)(=O)N1CCCC(C(=O)NCC(OC)OC)C1 (stereo not given) | 45.2 µg/mL (≈ 140 µM)
68 | CCCC(=O)NC(=S)Nc1cc(-c2nc3ncccc3o2)ccc1C | 0.5 µg/mL (≈ 1.41 µM)
69 | O=C(O)c1ccc2ncsc2c1 | > 26.9 µg/mL

Row | SMILES | solubility kinetic
70 | Cc1ccc(C)c(S(=O)(=O)NCCCN2CCOCC2)c1 | > 46.9 µg/mL
71 | Cc1nc(-c2ccc(S(=O)(=O)NCc3ccccn3)s2)cs1 | > 52.7 µg/mL
72 | Cc1cc(=O)oc2cc(OCC(=O)OC(C)C(=O)Nc3ccc(S(N)(=O)=O)cc3)ccc12 (stereo not given) | > 69.1 µg/mL
73 | Cc1cc(NC(=O)CSc2nc3cc(Cl)ccc3o2)no1 | 0.5 µg/mL (≈ 1.54 µM)
74 | CC1CCCC(NC(=O)COC(=O)CCc2ccccc2)C1C (stereo not given) | 12.2 µg/mL (≈ 38.4 µM)
75 | Cc1ccccc1CSc1[nH]c(=O)ncc1C | > 36.9 µg/mL
76 | CC1CCCC(C)N1C(=O)COC(=O)COc1ccc(C#N)cc1 (stereo not given) | > 49.6 µg/mL
77 | CC(=O)C1C(c2ccccc2)c2c(noc2C)CC1(C)O (stereo not given) | > 42.8 µg/mL
78 | CC(C)(CCl)C(=O)Nc1ccnc(-c2ccncc2)n1 | 6 µg/mL (≈ 20.6 µM)
79 | CCCOc1ccc2ccccc2c1/C=C1\SC(=O)NC1=O | > 47 µg/mL
80 | COc1ccc(Cl)cc1NC(=O)COC(=O)c1cc(C)oc1C | 4.2 µg/mL (≈ 12.4 µM)
81 | O=C1c2cccc3c([N+](=O)[O-])ccc(c23)C(=O)N1CCc1ccccn1 | 0.4 µg/mL (≈ 1.15 µM)
82 | Cc1cc(Nc2cccc([N+](=O)[O-])c2)c2cccc(C)c2n1.Cl | 5.5 µg/mL
83 | Cc1ccc(NC(=O)C(C)C(=O)Nc2ccc(C)cc2)cc1 | 1.5 µg/mL (≈ 5.06 µM)
84 | O=S(=O)(Nc1c(F)cccc1F)c1ccc2c(c1)OCCO2 | 2.5 µg/mL (≈ 7.64 µM)
85 | COc1ccccc1NC(=S)NC1CCCC1 | 35.9 µg/mL (≈ 143 µM)
86 | COc1ccc(NC(=O)C2CCCN(S(C)(=O)=O)C2)cc1 (stereo not given) | 34.9 µg/mL (≈ 112 µM)
87 | CN(C)C(=S)Nc1ccc(Br)c(Cl)c1 | 37 µg/mL (≈ 126 µM)
88 | Cc1ccc(C2(CCNCc3ccco3)CCOC(C(C)C)C2)cc1 (stereo not given) | > 51.2 µg/mL
89 | COCCNc1nc2nonc2nc1N1C[C@H]2CC[C@H]1C2 | > 43.5 µg/mL
90 | COc1ccccc1-c1nnc(SCC(=O)NC2CCCCC2)n1N | > 54.2 µg/mL
91 | Cc1nc(-c2ccc(Cl)cc2)sc1C(=O)O | 33.2 µg/mL (≈ 131 µM)
92 | CCOC(=O)c1cn(CC#N)c2cc(F)c(F)cc2c1=O | > 43.8 µg/mL
93 | COC(=O)c1ccc(CSc2nc3ccccc3c(=O)n2C)o1 | 4.5 µg/mL (≈ 13.6 µM)
94 | Cc1cc(C)c2c(-c3ccc(F)cc3)c(C#N)c(=O)n(C)c2n1 | 0.6 µg/mL (≈ 1.95 µM)
95 | Cc1ccc(C)c(NC(=O)CN(C)C(=O)/C=C/c2ccco2)c1 | > 46.9 µg/mL

Row | SMILES | solubility kinetic
96 | Fc1cccc(Cl)c1/C=C/c1cnc2ccccc2n1 | < 0.3 µg/mL
97 | O=[N+]([O-])c1ccc(-c2cnc[nH]2)cc1 | > 28.4 µg/mL
98 | O=C(NN1CCOCC1)c1ccco1 | > 29.4 µg/mL
99 | NC(=O)c1cccc(C(N)=O)n1 | > 24.8 µg/mL
100 | CC(C(=O)Nc1ccc(Cl)cc1)N(C)Cc1cccs1 (stereo not given) | 13.4 µg/mL (≈ 43.4 µM)
101 | O=C(O)c1cc(S(=O)(=O)N2CC3CC3C2C(=O)O)c(Cl)cc1Cl (stereo not given) | 52.3 µg/mL (≈ 138 µM)
102 | COc1ccc(/C(N)=N/OC(=O)CCC2CCCC2)cc1OC | 8 µg/mL (≈ 25 µM)
103 | Cc1nc(SCC(=O)NC2CC2)c2c(C)c(C)sc2n1 | 11.6 µg/mL (≈ 37.7 µM)
104 | NC(=O)CSc1ccc(S(=O)(=O)N2CCCCC2)cn1 | 44.6 µg/mL (≈ 141 µM)
105 | CC1=C(C)C(O)N(Cc2ccccc2)C1=O (stereo not given) | > 32.6 µg/mL
106 | C/C(=N\NC=O)c1ccncc1 | > 24.5 µg/mL
107 | COc1cc([N+](=O)[O-])cc2sc(NC(C)=O)nc12 | 2.7 µg/mL (≈ 10.1 µM)
108 | CC(C)(CO)NC(=O)C12CC3CC(CC(Br)(C3)C1)C2 | > 49.5 µg/mL
109 | COc1cc(C(=O)Nc2nnc(C)s2)c([N+](=O)[O-])cc1OC | > 48.6 µg/mL
110 | O=C1NC(=Nc2ccccc2)CS1 | > 28.8 µg/mL
111 | Cc1nc2cccc(C(=O)Oc3ccc([N+](=O)[O-])cc3)c2o1 | 10.1 µg/mL (≈ 33.9 µM)
112 | Cc1c(Cl)cccc1NC(=O)c1cc(-c2ccco2)on1 | 0.8 µg/mL (≈ 2.64 µM)
113 | Cc1cc(C(=O)CSc2nc(N)cc(=O)[nH]2)ccc1F | 32.5 µg/mL (≈ 111 µM)
114 | Cn1c2ccccc2c2nnc(SCCN3CCOCC3)nc21 | > 49.4 µg/mL
115 | Cc1cc(C(=O)NC2CCC(O)CC2)c(C)o1 (stereo not given) | > 35.6 µg/mL
116 | CC1(C)Cc2c(C#N)c(N)n(-c3ccccc3)c(=S)c2CO1 | > 46.7 µg/mL
117 | CC(=O)c1c(C)n(Cc2ccccc2)c2ccc(O)cc12 | 0.7 µg/mL (≈ 2.51 µM)
118 | O=C(O)c1cc(Cl)c(Cl)cc1C(=O)NCc1ccco1 | > 47.1 µg/mL
119 | Cc1ccc([N+](=O)[O-])c(OCCCN2C(=O)NC(C)(C)C2=O)c1 | > 48.2 µg/mL
120 | COCCCNC(=O)c1cc2cc(Br)ccc2oc1=O | 4.4 µg/mL (≈ 12.9 µM)
